Test [1] has as its system E. coli S30 lysate and luciferase mRNA. Conditions: bioluminescence; cited from earlier work.
For test [2], the target named is 70S ribosomes / EF-G (Escherichia coli, UniProt P0A7J7). The conditions noted are these: cited from earlier work.
In test [3] the target is isolated L11 (Escherichia coli, UniProt P0A7J7). Conditions: L11 without RNA; cited from earlier work.
The target of test [4] is 50S subunits (Escherichia coli, UniProt P0A7J7). Conditions: cited from earlier work.
Test [5] deals with T1, Thermotoga maritima ribosomes (Thermotoga maritima, UniProt P29395).
T1 sequence (P29395 2-141 limits assumed): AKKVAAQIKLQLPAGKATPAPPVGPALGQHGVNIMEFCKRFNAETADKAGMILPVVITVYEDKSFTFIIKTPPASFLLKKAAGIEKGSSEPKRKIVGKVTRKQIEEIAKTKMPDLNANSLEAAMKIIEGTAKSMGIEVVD
The conditions noted are these: less than B. stearothermophilus ribosomes; cited from earlier work.

Test [6] deals with 23S RNA. The conditions noted are these: equilibrium dialysis; read-out: dissociation constant of thiostrepton/23S RNA; cited from earlier work.
Test [7] concerns the target GAR RNA. Conditions: RNA without L11; read-out: Kd, affinity for the RNA alone; cited from earlier work.
The target of test [8] is intact ribosomes (Escherichia coli, UniProt P0A7J7). Conditions: higher than for 23S RNA; cited from earlier work.
Test [9] deals with GTPase centre-59 mer. The test can be described thus: Filter binding assay of thiostrepton to GTPase centre RNA (96-well, displacement format). Conditions: read-out: dissociation constant for the thiostrepton/GTPase centre-59 mer complex. The protocol: Thiostrepton binding to GTPase centre RNA can be monitored by a filter binding assays (Uchiumi et al., 1995, Biol. Chem., 270(50):29889-93; Draper et al., 1988, Methods Enzymol., 164:203-20). The filter binding assay can be transformed to a 96-well format using Millipore MHAB (mixed cellulose ester) 96-well plates. The dissociation constant for the thiostrepton/GTPase centre-59 mer complex of 1 uM is in good accordance with the literature. Additionally, filter binding can show the cooperativity in binding of thiostrepton and L11. Thermotoga maritima ribosomes are known to be sensitive to thiostrepton (Londei et al., 1988, J. Bacteriol., 170(9):4353-60), although 100-fold less than B. stearothermophilus ribosomes. The affinity of thiostrepton for Thermotoga GTPase center RNA in vitro has not yet been determined.
^35S- or ^32P-labelled RNA is prepared by transcription in the presence of radiolabelled nucleotides. The labelled RNAs are purified by gel electrophoresis or chromatography by reverse-phase. […] Association constants between RNA and thiostrepton in the presence or absence of inhbitor are determined in 100 ul reactions containing 10 mM Tris-HCl (pH 7.4), 3 mM MgCl2, 175 mM NH4Cl and 5% v/v DMSO. […]
The relative amounts of RNA retained in the presence and absence of inhibitor can be determined by quantitation of the radioactivity on each filter. […]

“Also recorded” adds a separate entry of the source.

Sequence of 70S ribosomes / EF-G (P0A7J7 2-142): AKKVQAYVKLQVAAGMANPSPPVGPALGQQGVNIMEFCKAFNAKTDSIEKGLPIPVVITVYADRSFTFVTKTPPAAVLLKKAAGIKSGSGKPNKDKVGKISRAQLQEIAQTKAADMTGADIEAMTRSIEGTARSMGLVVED
Sequence of isolated L11 (P0A7J7 whole entry): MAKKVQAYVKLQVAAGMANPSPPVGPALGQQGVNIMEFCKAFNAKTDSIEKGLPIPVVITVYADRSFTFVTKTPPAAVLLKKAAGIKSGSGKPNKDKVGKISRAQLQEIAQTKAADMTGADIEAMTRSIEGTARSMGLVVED
Sequence of 50S subunits (P0A7J7 2-142): as the sequence (P0A7J7 2-142) above
Sequence of intact ribosomes (P0A7J7 2-142): as above

For `O=C(N[C@H](CO)[C@H](O)c1ccc([N+](=O)[O-])cc1)C(Cl)Cl` [chloramphenicol], the “yield of active luciferase compared to the control” value in test [1] was “decrease in yield of active luciferase”.

`C/C=C(\NC(=O)c1csc(-c2csc(-c3ccc4c(n3)-c3csc(n3)[C@H]([C@@H](C)O)NC(=O)c3csc(n3)[C@H](C(C)C)NC(=O)c3csc(n3)/C(=C/C)NC(=O)[C@H]([C@@H](C)O)NC(=O)c3csc-4n3)n2)n1)C(=O)NC[C@@H](C)O` [micrococcin]: the “effect on hydrolysis of GTP by EF-G” value in test [2] is “stimulates GTP hydrolysis by EF-G”.

Take `C=C(NC(=O)C(=C)NC(=O)c1csc(C2=N[C@@H]3c4csc(n4)[C@H]4NC(=O)c5csc(n5)[C@H]([C@](C)(O)[C@@H](C)O)NC(=O)[C@H]5CSC(=N5)/C(=C/C)NC(=O)[C@H]([C@@H](C)O)NC(=O)c5csc(n5)[C@]3(CC2)NC(=O)[C@H](C)NC(=O)C(=C)NC(=O)[C@H](C)NC(=O)[C@H]([C@@H](C)CC)N[C@@H]2C=Cc3c([C@H](C)O)cc(nc3[C@H]2O)C(=O)O[C@@H]4C)n1)C(N)=O` [thiostrepton]: the “binding to isolated L11” value in test [3] was “does not bind isolated L11”. For the same molecule, the “binding to 50S subunits” value in [4] is “binds essentially irreversibly to 50S subunits”. Further, the “effect on hydrolysis of GTP by EF-G” value in [2] was “inhibits elongation factor G (EF-G)-dependent GTP hydrolysis; also recorded: inhibits hydrolysis of GTP by EF-G”. In addition, in test [5], the “sensitivity of ribosomes to thiostrepton relative to B. stearothermophilus ribosomes” value was 100 fold. Besides, the Kd in test [6] was 230 nM; in [7] it was 400 nM; in [9], 1000 nM. For the same molecule, in [1], the “yield of active luciferase compared to the control” value was “decrease in yield of active luciferase”. Moreover, the “affinity to intact ribosomes relative to 23S RNA” value in test [8] is listed as 100-1000 fold.
